Key:
Ixodes holocyclus = assay: Efficacy against induced Ixodes holocyclus infestations on dogs (Example 5)
[1] = test system: ticks (Dermacentor variabilis); assay: Efficacy of soft chews against induced tick infestations on dogs (Example 2); format: in vivo; details: for % Reduction Ticks: soft chew of Table 6, once on Day 0, dogs; for Percent reduction against ticks: Table 6 soft chew, treated once on Day 0, dogs
Procedure: Sixteen beagles were studied to determine the effectiveness of a soft chewable veterinary composition comprising Compound A against induced infestations of Dermacentor variabilis and Ctenocephalides felis.
Four Treatment Groups containing four dogs each were formed. Dogs in Group 1 were untreated. […] All dogs were treated once on Day 0.
All dogs were infested with approximately 100 C. felis on Days −1, 8, 15, 22, 29, 35, 43, 57 and 71. All dogs were also infested with approximately 50 D. variabilis on Days −1, 7, 14, 21, 28, 34 and 42. Both ticks and fleas were counted upon removal on Days 2, 9, 16, 23, 30, 36 and 44. Fleas were counted upon removal for all Treatment Groups on Days 58 and 72.

[2] = test system: fleas (Ctenocephalides felis); assay: Efficacy and speed of kill against fleas on dogs (Example 3); format: in vivo
Procedure: Three Treatment Groups were formed. Dogs in Group 1 were untreated. […] Groups 1 and 2 contained 12 dogs each and Group 3 contained 4 dogs. All dogs were treated once on Day 0.
All dogs were infested with approximately 75 C. felis on Days 0 and 7. The dogs in Group 3 and dogs in pre-allocated subgroups in Groups 1 and 2 were also infested with approximately 75 C. felis on Days 14, 21 and 28. Fleas were counted upon removal from selected subjects at 30 minutes, 4 hours, and 12 hours after treatment or infestation on Days 0 and 7. On Days 14, 21 and 28, fleas were counted upon removal from selected subjects at 8 and 12 hours after infestation. […] Following infestation at later timepoints, the composition started working within 30 minutes, and by 12 hours after infestation on Days 7, 14 and 21, efficacy of >98% was achieved.

O=C(CNC(=O)c1ccc(C2=NOC(c3cc(Cl)cc(C(F)(F)F)c3)(C(F)(F)F)C2)c2ccccc12)NCC(F)(F)F (stereo not drawn) [Compound A, 4-[5-[3-chloro-5-(trifluoromethyl)phenyl]-4,5-dihydro-5-(trifluoromethyl)-3-isoxazolyl]-N-[2-oxo-2-[(2,2,2-trifluoroethyl)amino]ethyl]-1-naphthalenecarboxamide]
Percent efficacy (Ixodes holocyclus; 24 hours post infestation on Days 1, 8, 15 and 22, Table 10 soft chew, at least 2.5 mg/kg once on Day 0): at least 95.8% | Percent efficacy (Ixodes holocyclus; 48 hours post infestation, all time points measured, once on Day 0, at least 2.5 mg/kg Compound A (Table 10), combination plus at least 0.5 mg/kg milbemycin oxime (Table 13)): at least 98.7% | Percent efficacy (Ixodes holocyclus; 72 hours post infestation, all time points measured, once on Day 0, at least 2.5 mg/kg Compound A (Table 10), combination plus at least 0.5 mg/kg milbemycin oxime (Table 13)): at least 99.2% | % Reduction Ticks ([1]; Group 2, approximately 1.5 mg/kg, Day 2): 100.0% | % Reduction Ticks ([1]; Group 2, approximately 1.5 mg/kg, Day 9): 99.2% | % Reduction Ticks ([1]; Group 2, approximately 1.5 mg/kg, Day 16): 100.0% | % Reduction Ticks ([1]; Group 2, approximately 1.5 mg/kg, Day 23): 92.1% | % Reduction Ticks ([1]; Group 2, approximately 1.5 mg/kg, Day 30): 99.5% | % Reduction Ticks ([1]; Group 2, approximately 1.5 mg/kg, Day 36): 82.4% | % Reduction Ticks ([1]; Group 2, approximately 1.5 mg/kg, Day 44): 68.3% | % Reduction Ticks ([1]; Group 3, approximately 2.5 mg/kg, Day 2): 100.0% | % Reduction Ticks ([1]; Group 3, approximately 2.5 mg/kg, Day 9): 100.0% | % Reduction Ticks ([1]; Group 3, approximately 2.5 mg/kg, Day 16): 99.1% | % Reduction Ticks ([1]; Group 3, approximately 2.5 mg/kg, Day 23): 97.2% | % Reduction Ticks ([1]; Group 3, approximately 2.5 mg/kg, Day 30): 94.3% | % Reduction Ticks ([1]; Group 3, approximately 2.5 mg/kg, Day 36): 96.9% | % Reduction Ticks ([1]; Group 3, approximately 2.5 mg/kg, Day 44): 88.1% | % Reduction Ticks ([1]; Group 4, approximately 3.5 mg/kg, Day 2): 100.0% | % Reduction Ticks ([1]; Group 4, approximately 3.5 mg/kg, Day 9): 100.0% | % Reduction Ticks ([1]; Group 4, approximately 3.5 mg/kg, Day 16): 99.5% | % Reduction Ticks ([1]; Group 4, approximately 3.5 mg/kg, Day 23): 100.0% | % Reduction Ticks ([1]; Group 4, approximately 3.5 mg/kg, Day 30): 98.1% | % Reduction Ticks ([1]; Group 4, approximately 3.5 mg/kg, Day 36): 91.9% | % Reduction Ticks ([1]; Group 4, approximately 3.5 mg/kg, Day 44): 84.7% | Percent reduction against ticks ([1]; through Day 36, Groups 3 and 4): > 90% | Percent reduction against ticks ([1]; through and including Day 30, all treatment groups (approx. 1.5, 2.5 or 3.5 mg/kg)): > 90% | Flea efficacy ([2]; 12 hours after administration on Day 0, soft chews of Tables 7 and 8, approx. 2.5 mg/kg): 100% | Time until compositions started working against fleas ([2]; after treatment on Day 0, approx. 2.5 mg/kg): ≤ 30 min | Flea efficacy ([2]; by 12 hours after infestation on Days 7, 14 and 21, soft chews of Tables 7 and 8, approx. 2.5 mg/kg once on Day 0): > 98% | Time until composition started working against fleas ([2]; following infestation at later timepoints, approx. 2.5 mg/kg once on Day 0): ≤ 30 min

Source: patent US9931320B2, “Parasiticidal oral veterinary compositions comprising systemically-acting active agents, methods and uses thereof” (MERIAL INC., priority 2012, dated 2018)
